{"source": "patent US20250134860A1", "about": "“NOVEL COMPOUND, AND COMPOSITION FOR PREVENTING, ALLEVIATING OR TREATING BACTERIAL INFLAMMATION AND INFLAMMASOME-MEDIATED DISEASES, COMPRISING SAME AS ACTIVE INGREDIENT” (Quorum Bio Co., Ltd., priority 2022, published 2025)", "key": {"P. gingivalis": {"tested_on": "P. gingivalis", "test": "Inhibitory effect on P. gingivalis biofilm formation (crystal violet, OD590nm)", "type": "cell-based, Porphyromonas gingivalis"}, "[1]": {"test": "Plasma stability in rat plasma (LC-MS/MS)", "type": "in vitro ADME", "conditions": "37° C., 0, 30, 60, 120, 240 minutes", "description": "(§1) The compounds of Examples 1-2 and Comparative Example, and the substance used as the positive control (Eucatropine, Loterpresnol) were dissolved in DMSO to prepare a stock solution having a concentration of 10 mM. The stock solution of each test substance was then diluted to prepare 0.2 mM and 1 mM working solutions and used for the test (For the comparative example compound, 70% acetonitrile was used as a solvent, and for the compound of Example 1-2, 50% acetonitrile was used as a solvent).\n(§2) The positive control and the standard solution of the test substance were placed in tubes containing two types of plasma (human and rat) at concentrations of 1 μM and 5 μM, respectively, and then incubated at 37° C. for a prescribed time (0, 30, 60, 120, 240 minutes) while shaking and mixing. At each time point, the mixture sample was dispensed in 100 μl increments into a cell culture plate (96-well plate) containing 400 μl of quench reagent to terminate the test, After centrifugation (5000×g, 10 min), 100 μl of the supernatant was taken out, mixed with 200 μl of ultrapure water, and the solution was then injected into a LC-MS/MS system to analyze the drug in each time zone. Thereby, the plasma stability of the compounds of Comparative Example and Example 1-2 was evaluated."}, "P. aeruginosa": {"tested_on": "P. aeruginosa", "test": "Inhibitory effect on biofilm formation in P. aeruginosa", "type": "cell-based, Pseudomonas aeruginosa", "conditions": "0.006, 0.06, 0.6 μg/ml; 48 hours; compared with control (CT)", "description": "(§3) The inhibitory effect of the compound of Example 1-2 on biofilm formation in P. aeruginosa (available from the Korean Collection for Oral Microbiology (KCOM)) and A. baumannii (available from the Korea Culture Center of Microorganisms (KCCM)) was confirmed.\n(§4) Sterilized cover glass slips (round, 12 mm radius) were placed individually at a bottom of each well of a cell culture plate (24-well plate) using forceps, and the compound of Example 1-2 was diluted in the medium (P. aeruginosa: LB medium, A. baumannii: NB medium) cultured with bacteria so that the final concentrations were 0.006 μg/ml, 0.06 μg/ml, and 0.6 μg/ml.\n(§5) The prepared culture medium was dispensed into a cell culture plate in which glass slips were placed, and the respective bacteria were inoculated to a concentration of 2×10^7 cells/ml. […]\n(§6) The biofilm in which bacteria cultured for each group were formed on glass slips was stained with 1% crystal violet solution for 15 minutes, and then washed three times with PBS (phosphate buffered saline) solution, and decolorized with acetone-alcohol (20:80, vol/vol). After the decolorizing solution containing crystal violet was put in 200 μl increments in a 96-well microplate for each group, the absorbance (OD590nm) was measured using an absorbance microplate reader (Epoch2, Bio-Tek, USA), and the biofilm formation level was compared."}, "[2]": {"test": "Plasma stability in human plasma (LC-MS/MS)", "type": "in vitro ADME", "conditions": "37° C., 0, 30, 60, 120, 240 minutes", "description": "as §1, §2"}, "[3]": {"tested_on": "human monocyte cell line (THP-1)", "test": "Cytotoxicity in human monocyte cell line (CCK-8)", "type": "cell-based", "conditions": "0.002, 0.02, 0.2, 2 μM, 24 hours, at any concentration", "description": "The human monocyte cell line (THP-1) was cultured in a 10% fetal bovine serum (Hyclone, Waltham, MA, USA), and a RPMI 1640 medium supplemented with 2.05 mM L-glutamate and antibiotics (100 units/ml penicillin, 100 μg/ml streptomycin), and then seeded in a 96 well microtiter plate at a concentration of 1×10^5 cells/well. The compound of Example 1-2 was diluted to a final concentration of 0.002 μM, 0.02 μM, 0.2 μM, and 2 μM, cells in each well were treated and cultured for 24 hours. Then, the cultured cells were treated with 10 μl of Cell Counting Kit-8 (CCK-8, DOJINDO, Kumamoto, Japan) solution in each well, and then the absorbance was measured at 450 nm for each time zone (1 h, 2 h, 3 h), and the results were derived based on the absorbance data from the last time zone, 3 h. At this time, the cell viability of untreated cells was set as 100% as the reference, and the cell viability of the cells treated with the sample was calculated and shown in FIG. 19."}, "[4]": {"tested_on": "mouse bone marrow-derived macrophages", "test": "Cytotoxicity in mouse bone marrow-derived macrophages (MTT)", "type": "cell-based", "conditions": "at a concentration of 16 μM or less (0.5-16 μM tested), 24 hours", "description": "Bone marrow was isolated from the femur and tibia of 8-12 week old C57BL/6J mice (available from Daehan Biolink) using a 26 g syringe, and the isolated bone marrow was differentiated into macrophages by culturing a medium containing IMDM media+30% L929 cell supernatant+10% fetal bovine serum+1% pencillin/streptomycin+1% non-essential amino acid+1% sodium pyruvate in a 150TT cell culture plate for 6 days, and used for the experiment.\nThe differentiated macrophages were seeded in 200 μl increments in a 48-well plate at a concentration of 1×10^6 cell/ml, and stabilized at 37° C. and 5% CO2 for 12 hours. […]\nThen, the supernatant of the cultured cells was removed, treated with 200 μl of MTT solution having a concentration of 400 μg/ml, and then reacted at […] and 5% CO2 for 4 hours. Then, the reaction solution was removed, 200 μl of DMSO was added, and the absorbance was measured at 570 nm. At this time, the viability of cells treated with the sample was calculated based on the viability of untreated cells considered as 100%, and is shown in FIG. 6. […]\nThe supernatant of the cultured cells was then removed, 200 μl of MTT solution having a concentration of 400 μg/ml was added, and then reacted at […] and 5% CO2 for 4 hours. Then, the reaction solution was removed, 200 μl of DMSO was added, and the absorbance was measured at 570 nm. […]"}, "A. baumannii": {"tested_on": "A. baumannii", "test": "Inhibitory effect on biofilm formation in A. baumannii", "type": "cell-based, Acinetobacter baumannii", "conditions": "0.006, 0.06, 0.6 μg/ml; 48 hours; compared with control (CT)", "description": "as §3, §4, §5, §6"}}}
{"smiles": "Cc1ccc(C(=C2c3ccccc3C(=O)N2C)c2ccc(C)cc2)cc1", "note": "[Example 1-2, 3-(di-p-tolylmethylene)-2-methylisoindolin-1-one]", "values": [{"measurement": "biofilm formation of P. gingivalis increased by DPD", "setting": "P. gingivalis; DPD 10 μM + compound 0.002, 0.02, 0.2, 2 μM, 48 hours, anaerobic, OD590nm", "value": "inhibited in a concentration-dependent manner"}, {"measurement": "ability to inhibit biofilm formation of P. gingivalis at the same concentration", "setting": "P. gingivalis; Example 1-2 against comparative example compound, 0.002-2 μM with DPD", "value": "better ability to inhibit biofilm formation than the comparative example compound"}, {"measurement": "amount of the compound remaining in the plasma", "setting": "[1]", "value": "remained stable"}, {"measurement": "biofilm formation of P. aeruginosa", "setting": "P. aeruginosa", "value": "significantly suppressed in a concentration-dependent manner"}, {"measurement": "amount of the compound remaining in the plasma", "setting": "[2]", "value": "remained stable"}, {"measurement": "cytotoxicity (cell viability, CCK-8)", "setting": "[3]", "value": "did not exhibit cytotoxicity"}, {"measurement": "cytotoxicity (cell viability, MTT)", "setting": "[4]", "value": "did not exhibit cytotoxicity"}, {"measurement": "biofilm formation of A. baumannii", "setting": "A. baumannii", "value": "significantly suppressed in a concentration-dependent manner"}]}
